{"source": "patent US11167039B2", "about": "“MET antibody drug conjugates” (priority 2016, dated 2021)", "key": {"H441": {"system": "H441", "test": "Cell killing, H441", "type": "cell-based, human", "design": "key: Sensitive; Resistant", "details": "H441, NSCLC", "method": "(§1) Briefly described, 2-3×10^3 cells/well in 100 μL of culture medium may be plated in 96 well plates and incubated overnight at 37° C., 5% CO2. The MET-ADCs, MET antibody(ies), control MMAE or control hIgG4 conjugated to MMAE with cysteine conjugation antibody(ies) may be diluted 1:3 in serum-free culture medium starting from 100 nM (final) in 50 μL as 3× concentrations to the HT-29 cells. At the end of an additional 5-6 days of cell growth at 37° C. in a humidified incubator with 5% CO2, the plates may be equilibrated to room temperature for 30 minutes and 100 μL/well of CellTiter-Glo® reagent (Promega Corp., Fitchburg, Wis.) may then be added to assess cell viability. Cell viability may be determined by measuring luminescence.\n(§2) Various tumor cell lines and normal human cells may be tested for MET-ADC induced cell killing activity essentially as described above in Example 10 as assessed for MET receptor density. MET cell surface density was determined by indirect immunofluorescence staining of cell surface antigens on cultured cells using QIFIKIT (Dako). […] Following a forty-five minute incubation, cells may be incubated for 1 hour on ice with FITC conjugated antibody diluted 1:50 in FACS buffer. Then cells may be washed and receptor numbers may be determined by indirect immunofluorescence staining of the QIFIKIT beads using a Becton Dickinson LSRII flow cytometer."}, "RPTEC": {"system": "RPTEC", "test": "Cell killing, non-tumor RPTEC", "type": "cell-based, human", "design": "key: Sensitive; Resistant", "details": "renal proximal tubul cell", "method": "as §1, §2"}, "Calu-6 xenograft": {"system": "Calu-6 xenograft", "test": "Calu-6 non-small-cell-lung cancer xenograft model", "type": "in vivo, mouse", "method": "(§3) Female athymic nude mice age 6- to 7-weeks old are available commercially, including from Harlan Laboratories (Indianapolis, Ind.). The mice are allowed to acclimate for one week and fed ad libitum on a normal low fat (4.5%) diet, which may be continued for the duration of the study. Tumor cells may be purchased from ATCC and may be cultured in cell culture media such as RPMI 1640 (Life Technologies) with L-glutamine, 25 mM HEPES supplemented with 10% FBS and 1 mM Na Pyruvate. Cells may be detached, washed with serum free medium and then resuspended at a final concentration of 50×10^6 cells/mL in serum free RPMI 1640. Tumor cells, approximately 5×10^6, may be injected subcutaneously in the rear flank of subject mice in a 1:1 mixture of serum free growth medium and Matrigel (Becton Dickinson, Bedford, Mass.). Tumor and body weight measurements may be performed twice weekly. Prior to treatment, mice can be randomized based on tumor size using a randomization algorithm. Treatments may be started when the average tumor volume reaches 100 mm^3. […]\n(§4) MET-ADCs and control hIgG4-MMAE may be prepared in Phosphate Buffered Saline (PBS) prior to dose. Tumor size may be determined by caliper measurements. […] Log volume data can be analyzed with two-way repeated measures ANOVA by time and treatment using SAS PROC MIXED software (SAS Institutes Inc, Cary, N.C.). […]"}, "NCI-H292": {"system": "NCI-H292", "test": "Cell killing, NCI-H292", "type": "cell-based, human", "design": "key: Sensitive; Resistant", "details": "NCI-H292, NSCLC", "method": "as §1, §2"}, "A204": {"system": "A204", "test": "Cell killing, A204", "type": "cell-based, human", "design": "key: Sensitive; Resistant", "details": "A204, Rhabdomyosarcoma", "method": "as §1, §2"}, "HCT-116": {"system": "HCT-116", "test": "Cell killing, HCT-116", "type": "cell-based, human", "design": "key: Sensitive; Resistant", "details": "HCT-116, Colorectal Ca", "method": "as §1, §2"}, "[1]": {"system": "pan-AKT phosphorylation (pAKT) in Caki-1 cells", "test": "Phosphor-AKT bioassay for MET agonist activity in Caki-1 cells", "type": "cell-based", "details": "5 μg/mL", "method": "Because it has been reported that MET agonistic antibodies increased hepatocyte proliferation and toxicity, a phosphor-AKT assay may be used to test MET-ADCs for MET agonist activity. Briefly stated, Caki-1 cells may be starved overnight in serum-free medium with 0.1% BSA and then treated with ADCs or naked MET antibodies at 5 μg/mL for the desired durations. Cell lysates may be analyzed for phosphorylation of pan-AKT by MSD ELISA, for example."}, "RKO": {"system": "RKO", "test": "RKO cell-killing assay", "type": "cell-based, human", "details": "RKO (BRAF, PIK3) colon cancer cells", "method": "as §1, §2"}, "Su.86.86": {"system": "Su.86.86", "test": "Cell killing, Su.86.86", "type": "cell-based, human", "design": "key: Sensitive; Resistant", "details": "Su.86.86, PANC Ca", "method": "as §1, §2"}, "BxPC-3": {"system": "BxPC-3", "test": "Cell killing, BxPC-3", "type": "cell-based, human", "design": "key: Sensitive; Resistant", "details": "BxPC-3, PANC Ca", "method": "as §1, §2"}, "EBC-1": {"system": "EBC-1", "test": "Cell killing, EBC-1", "type": "cell-based, human", "design": "key: Sensitive; Resistant", "details": "EBC-1, NSCLC", "method": "as §1, §2"}, "OV79": {"system": "OV79", "test": "Cell killing, OV79", "type": "cell-based, human", "design": "key: Sensitive; Resistant", "details": "OV79, Ovarian Ca", "method": "as §1, §2"}, "[2]": {"system": "cholangiocarcinoma PDX tumors", "test": "Cholangiocarcinoma PDX model", "type": "in vivo, mouse", "details": "5 mg/kg weekly, four doses; 4 cholangiocarcinoma PDX", "excerpt": "Body weight can also be assessed regularly.\nTumor samples from 4 human cholangiocarcinoma patients were individually implanted into different immunocompromised mice (i.e., each mouse carried one tumor derived from a patient's cholangiocarcinoma tumor) essentially as described above in this Example 13."}, "HuAEC": {"system": "HuAEC", "test": "Cell killing, non-tumor HuAEC", "type": "cell-based, human", "design": "key: Sensitive; Resistant", "details": "aortic endothelia cell", "method": "as §1, §2"}, "KP-4 xenograft": {"system": "KP-4 xenograft", "test": "KP-4 pancreatic cancer xenograft model", "type": "in vivo, mouse", "details": "vs control hIgG4-Lys-ADC", "method": "as §3, §4"}, "SNU869": {"system": "SNU869", "test": "Cell killing, SNU869", "type": "cell-based, human", "design": "key: Sensitive; Resistant", "details": "SNU869, Cholangiocarcinoma", "method": "as §1, §2"}}, "note": "Entries after “also recorded” stand apart in the source; their conditions may differ.", "data": [{"substance": "MET-ADC#1: emibetuzumab lysine-conjugated via (2,5-dioxopyrrolidin-1-yl) 2-azidoacetate and Octyne-β-Glucn-MMAE", "values": [{"measurement": "Sensitive/ Resistant", "setting": "H441", "value": "S"}, {"measurement": "Sensitive/ Resistant", "setting": "RPTEC", "value": "R"}, {"measurement": "antitumor efficacy", "setting": "Calu-6 xenograft", "value": "initial tumor regression and stable disease status"}, {"measurement": "Sensitive/ Resistant", "setting": "NCI-H292", "value": "S"}, {"measurement": "Sensitive/ Resistant", "setting": "A204", "value": "R"}, {"measurement": "Sensitive/ Resistant", "setting": "HCT-116", "value": "R"}, {"measurement": "MET agonist activity (induction of pan-AKT phosphorylation)", "setting": "[1]", "value": "same low to no agonist activity as its unconjugated parental antibody, emibetuzumab; also recorded: does not have increased agonist activity as compared with emibetuzumab"}, {"measurement": "cell killing activity in RKO cells", "setting": "RKO", "value": "killed; also recorded: highly potent in killing RKO cells"}, {"measurement": "Sensitive/ Resistant", "setting": "Su.86.86", "value": "R"}, {"measurement": "Sensitive/ Resistant", "setting": "BxPC-3", "value": "S"}, {"measurement": "Sensitive/ Resistant", "setting": "EBC-1", "value": "S"}, {"measurement": "Sensitive/ Resistant", "setting": "OV79", "value": "S"}, {"measurement": "inhibition of tumor growth", "setting": "[2]", "value": "dramatically inhibited tumor growth"}, {"measurement": "Sensitive/ Resistant", "setting": "HuAEC", "value": "R"}, {"measurement": "anti-tumor activity", "setting": "KP-4 xenograft", "value": "dramatic anti-tumor activity"}, {"measurement": "Sensitive/ Resistant", "setting": "SNU869", "value": "S"}]}]}
